Reference: ChEMBL document CHEMBL4334500, “Macrocyclic Diterpenoids from Euphorbia helioscopia and Their Potential Anti-inflammatory Activity” (J Nat Prod, 2019)
The source made the active and inactive calls. No cut-off for these calls is given here.

Key:
RAW264.7 [1] = assay: Anti-inflammatory activity in mouse RAW264.7 cells assessed as inhibition of LPS-stimulated NO production preincubated with LPS and measured after 20 hrs by Griess reagent-based assay; format: functional, cell-based
RAW264.7 [2] = assay: Cytotoxicity against mouse RAW264.7 cells at 6.25 to 100 uM measured after 24 hrs by MTT assay; format: cell-based; conditions: raw264.7, 24 h
RAW264.7 [3] = assay: Antiinflammatory activity in mouse RAW264.7 cells assessed as decrease in LPS-induced IL-6 secretion after 24 hrs by ELISA; format: functional, cell-based
RAW264.7 [4] = assay: Antiinflammatory activity in mouse RAW264.7 cells assessed as decrease in LPS-induced TNF-alpha secretion after 24 hrs by ELISA; format: functional, cell-based
[5] = target: Transcription factor p65 (Mus musculus) (UniProt Q04207); assay: Inhibition of LPS-induced NF-kappaB p65 translocation in mouse RAW264.7 cells at 3 to 12 uM incubated for 2 hrs by DAPI staining based immunofluorescence assay; format: cell-based
Transcription factor p65 (Mus musculus), sequence (Q04207 whole entry): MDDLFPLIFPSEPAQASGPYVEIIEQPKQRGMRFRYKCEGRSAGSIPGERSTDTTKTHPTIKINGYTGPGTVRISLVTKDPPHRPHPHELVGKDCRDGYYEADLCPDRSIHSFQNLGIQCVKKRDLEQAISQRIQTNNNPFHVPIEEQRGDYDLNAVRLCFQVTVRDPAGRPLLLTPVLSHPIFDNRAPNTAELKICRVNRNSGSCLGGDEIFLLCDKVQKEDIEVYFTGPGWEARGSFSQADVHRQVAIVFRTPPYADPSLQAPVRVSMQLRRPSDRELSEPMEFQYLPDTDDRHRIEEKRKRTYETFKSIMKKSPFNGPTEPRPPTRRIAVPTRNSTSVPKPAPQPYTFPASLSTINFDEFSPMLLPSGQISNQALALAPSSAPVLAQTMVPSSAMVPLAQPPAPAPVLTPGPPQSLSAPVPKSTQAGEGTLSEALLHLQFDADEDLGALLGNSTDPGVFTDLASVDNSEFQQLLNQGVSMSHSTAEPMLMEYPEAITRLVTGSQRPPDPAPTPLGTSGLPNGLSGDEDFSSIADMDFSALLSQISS

RAW264.7 [6] = assay: Antiinflammatory activity in mouse RAW264.7 cells assessed as decrease in LPS-induced IL-6 mRNA expression after 6 to 24 hrs by FQ-PCR analysis; format: functional, cell-based
RAW264.7 [7] = assay: Antiinflammatory activity in mouse RAW264.7 cells assessed as effect on LPS-induced TNF-alpha mRNA expression after 12 to 24 hrs by FQ-PCR analysis; format: functional, cell-based
RAW264.7 [8] = assay: Anti-inflammatory activity in mouse RAW264.7 cells assessed as inhibition of LPS-stimulated NO production at 15 uM preincubated with LPS and measured after 20 hrs by Griess reagent-based assay relative to control; format: functional

SMILES | inhibition (RAW264.7 [1]) | Activity (RAW264.7 [2]) | further results
CC(=O)O[C@]12C[C@H](C)[C@H](OC(=O)c3ccccc3)[C@@H]1/C=C(\C)[C@H](OC(=O)c1ccccc1)CC(=O)C(C)(C)/C=C/[C@@H](C)C2=O | inactive | Non-Toxic | –
CC(=O)O[C@]12C[C@@H](C)[C@H](OC(=O)c3ccccc3)[C@@H]1/C=C(\C)[C@H](OC(=O)c1ccccc1)CC(=O)C(C)(C)/C=C/[C@@H](C)C2=O | inactive | Non-Toxic | –
CC(=O)O[C@@H]1[C@@H](C)[C@H](C=C(C)C)C(=O)C[C@@H](OC(C)=O)/C(C)=C/[C@H]2[C@@H](OC(=O)c3ccccc3)[C@H](C)C[C@]12OC(C)=O | – | Non-Toxic | Activity (RAW264.7 [3]): Dose-dependent effect; Activity (RAW264.7 [4]): Dose-dependent effect; inhibition [5]: Active; Activity (RAW264.7 [6]): Dose-dependent effect; IC50 (RAW264.7 [1]): 7.4 µM; Activity (RAW264.7 [7]): inactive
CC(=O)O[C@@H]1[C@@H](C)/C=C/C(C)(C)C(=O)C[C@@H](OC(C)=O)/C(C)=C/[C@H]2[C@@H](OC(=O)c3ccccc3)[C@H](C)C[C@]12OC(C)=O | inactive | Non-Toxic | –
CC(=O)O[C@@H]1[C@H](C)/C=C/C(C)(C)C(=O)C[C@@H](OC(=O)c2ccccc2)/C(C)=C/[C@H]2[C@@H](OC(=O)c3ccccc3)[C@H](C)C[C@]12OC(C)=O [EUPHOSCOPIN C] | inactive | Non-Toxic | –
CC(=O)O[C@@H]1[C@@H](C)/C=C/C(C)(C)C(=O)C[C@@H](O)/C(C)=C/[C@H]2[C@@H](OC(=O)c3ccccc3)[C@H](C)C[C@]12OC(C)=O | inactive | Non-Toxic | –
C[C@@H]1C[C@H]2[C@@H]3CCC4=CC(=O)C=C[C@]4(C)[C@@]3(F)[C@@H](O)C[C@]2(C)[C@@]1(O)C(=O)CO [DEXAMETHASONE] | – | – | inhibition at 15 µM (RAW264.7 [8]): 34.2%
CC(=O)O[C@@H]1[C@H](C)/C=C/C(C)(C)C(=O)CC/C(C)=C/[C@H]2[C@@H](OC(=O)c3ccccc3)[C@H](C)C[C@]12OC(C)=O | inactive | Non-Toxic | –
COc1cc(/C=C/c2ccccc2)c(C(=O)O)c(O)c1CC=C(C)C | – | – | inhibition at 15 µM (RAW264.7 [8]): 30.2%
CC(=O)O[C@]12C[C@@H](C)[C@H](OC(=O)c3ccccc3)[C@@H]1/C=C(\C)[C@H](O)CC(=O)C(C)(C)C/C=C(\C)C2=O | inactive | Non-Toxic | –
CC(=O)O[C@@H]1[C@H](C)/C=C/C(C)(C)C(=O)C[C@@H](O)/C(C)=C/[C@H]2[C@@H](OC(=O)c3ccccc3)[C@H](C)C[C@]12OC(C)=O | inactive | Non-Toxic | –
CC(=O)O[C@@H]1[C@@H](C)/C=C/C(C)(C)C(=O)C[C@@H](OC(C)=O)/C(C)=C/[C@H]2[C@@H](OC(=O)c3ccccc3)[C@@H](C)C[C@]12OC(C)=O | inactive | Non-Toxic | –
CC(=O)O[C@]12C[C@@H](C)[C@H](OC(=O)c3ccccc3)[C@@H]1/C=C(\C)C(=O)CC(=O)C(C)(C)C/C=C(\C)C2=O | inactive | Non-Toxic | –
